From US10189854B2, “Substituted pyrimidine compounds” (Grünenthal GmbH, priority 2014, dated 2019)

Target: human PDE4B1 (Homo sapiens (Human), UniProt Q07343)
Experiment: TR-FRET assay using the LANCE Ultra cAMP kit to determine the activity of hPDE4B1
Type: biochemical
Details: IC50 inhibition of PDE4B, mean
Outline: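 Recombinant human PDE4B1 (Sf9-expressed, 0.96 U) incubated with compound and 500 nM cAMP in 50 mM Tris-HCl, 50 mM MgCl2, 5 mM DTT, pH 8.5, 30 min at room temperature. Residual cAMP read by TR-FRET (665/620 nm ratio) after IBMX stop. IC50 from ten-concentration curves as % inhibition of control.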

Chain of human PDE4B1 (Q07343 whole entry): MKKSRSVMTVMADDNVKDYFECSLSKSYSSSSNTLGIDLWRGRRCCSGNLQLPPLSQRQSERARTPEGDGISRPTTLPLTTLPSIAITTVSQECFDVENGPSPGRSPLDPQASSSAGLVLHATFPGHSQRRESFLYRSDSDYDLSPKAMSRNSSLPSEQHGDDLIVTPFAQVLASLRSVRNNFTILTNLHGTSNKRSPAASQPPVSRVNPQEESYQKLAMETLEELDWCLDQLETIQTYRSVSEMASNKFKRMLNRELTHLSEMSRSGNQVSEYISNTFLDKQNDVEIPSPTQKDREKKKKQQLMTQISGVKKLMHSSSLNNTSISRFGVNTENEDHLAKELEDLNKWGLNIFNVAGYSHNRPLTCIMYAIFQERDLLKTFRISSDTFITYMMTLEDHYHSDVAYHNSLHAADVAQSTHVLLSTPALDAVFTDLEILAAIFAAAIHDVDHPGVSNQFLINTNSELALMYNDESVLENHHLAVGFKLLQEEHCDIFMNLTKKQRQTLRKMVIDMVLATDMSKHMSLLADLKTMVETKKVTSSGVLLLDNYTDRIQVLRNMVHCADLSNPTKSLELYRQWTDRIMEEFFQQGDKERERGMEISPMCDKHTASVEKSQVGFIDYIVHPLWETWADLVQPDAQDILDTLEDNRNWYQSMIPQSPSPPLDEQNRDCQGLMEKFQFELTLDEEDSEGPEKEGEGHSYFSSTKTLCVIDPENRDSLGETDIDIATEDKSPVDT

SMILES | IC50 [µM]
CN(CCO)C(=O)c1ccc2c(c1)N(c1ncc(-c3nc(CO)cs3)cn1)CC21CC1 [Compound 357, N-(2-Hydorxy-ethyl)-1-[5-[4-(hydroxymethyl)-thiazol-2-yl]-pyrimidin-2-yl]-N-methyl-spiro[1,2-dihydro-indole-3,1′-cyclopropane]-6-carboxylic acid amide] | < 0.1
CN(CCO)C(=O)c1ccc2c(c1)N(c1ncc(-c3ccccn3)cn1)CC21CC1 [Compound 229, N-(2-Hydroxy-ethyl)-N-methyl-1-(5-pyridin-2-yl-pyrimidin-2-yl)-spiro[1,2-dihydro-indole-3,1′-cyclopropane]-6-carboxylic acid amide] | < 0.1
CN(CCO)C(=O)c1ccc2c(c1)N(c1ncc(-c3ccnc(F)c3)cn1)CC21CC1 [Compound 231, 1-[5-(2-Fluoro-pyridin-4-yl)-pyrimidin-2-yl]-N-(2-hydroxy-ethyl)-N-methyl-spiro[1,2-dihydro-indole-3,1′-cyclopropane]-6-carboxylic acid amide] | < 0.1
COc1ccnc(-c2cnc(N3CC4(CC4)c4ccc(C(=O)N(C)CC(N)=O)cc43)nc2)c1 [Compound 321, N-(Carbamoyl-methyl)-1-[5-(4-methoxy-pyridin-2-yl)-pyrimidin-2-yl]-N-methyl-spiro[1,2-dihydro-indole-3,1′-cyclopropane]-6-carboxylic acid amide] | < 0.1
Cc1cc(C)nc(-c2cnc(N3CC4(CC4)c4ccc(C(=O)N(C)CCO)cc43)nc2)c1 [Compound 260, 1-[5-(4,6-Dimethyl-pyridin-2-yl)-pyrimidin-2-yl]-N-(2-hydroxy-ethyl)-N-methyl-spiro[1,2-dihydro-indole-3,1′-cyclopropane]-6-carboxylic acid amide] | < 0.1
O=C(c1ccc2c(c1)N(c1ncc(-c3ccccn3)cn1)CC21CC1)N1C[C@@H]2C[C@H]1CN2 [Compound 304, [(1S,4S)-2,5-Diazabicyclo[2.2.1]heptan-2-yl]-[1-(5-pyridin-2-yl-pyrimidin-2-yl)-spiro[1,2-dihydro-indole-3,1′-cyclopropane]-6-yl]-methanone] | < 0.1
C[C@@H](O)CN1CCN(C(=O)c2ccc3c(c2)N(c2ncc(-c4ccccc4F)cn2)CC32CC2)CC1 [Compound 239, [1-[5-(2-Fluorophenyl)-pyrimidin-2-yl]-spiro[1,2-dihydro-indole-3,1′-cyclopropane]-6-yl]-[4-[(2R)-2-hydroxy-propyl]-piperazin-1-yl]-methanone] | < 0.1
CC(O)c1ccc(F)c(-c2cnc(N3CC4(CC4)c4ccc(C(=O)N(C)CCO)cc43)nc2)c1 (centres unmarked) [Compound 312, 1-[5-[2-Fluoro-5-(1-hydroxy-ethyl)-phenyl]-pyrimidin-2-yl]-N-(2-hydroxy-ethyl)-N-methyl-spiro[1,2-dihydro-indole-3,1′-cyclopropane]-6-carboxylic acid amide] | < 0.1
O=C(c1ccc2c(c1)N(c1ncc(-c3cc(C4CC4)ccn3)cn1)CC21CC1)N1CCC[C@H](CO)C1 [Compound 332, [1-[5-(4-Cyclopropyl-pyridin-2-yl)-pyrimidin-2-yl]-spiro[1,2-dihydro-indole-3,1′-cyclopropane]-6-yl]-[(3S)-3-(hydroxymethyl)-piperidin-1-yl]-methanone] | < 0.1
CN(CCO)C(=O)c1ccc2c(c1)N(c1ncc(-c3cccc(O)c3)cn1)CC21CC1 [Compound 264, N-(2-Hydroxy-ethyl)-1-[5-(3-hydroxyphenyl)-pyrimidin-2-yl]-N-methyl-spiro[1,2-dihydro-indole-3,1′-cyclopropane]-6-carboxylic acid amide] | < 0.1
O=C(c1ccc2c(c1)N(c1ncc(-c3cccc(F)c3)cn1)CC21CC1)N1CC2CC1CN2 (centres unmarked) [Compound 223, (2,5-Diazabicyclo[2.2.1]heptan-2-l)-[1-[5-(3-fluorophenyl)-pyrimidin-2-yl]-spiro[1,2-dihydro-indole-3,1′-cyclopropane]-6-yl]-methanone] | < 0.1
